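Briefly, cells in 96-well plates were exposed to five compound concentrations for 48 h, and endpoints were estimated by linear interpolation. At the GI50, growth is halved.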 The source made the active and inactive calls. No stated cut-off is given here; in the data, active = GI50 up to about 1.1 µM and inactive = higher.
Legend:
Assay in all cases: DTP human tumour cell line panel, 48 h
SF-539 = test system: SF-539
SW-620 = test system: SW-620
OVCAR-8 = test system: OVCAR-8
DMS-273 = test system: DMS-273
EKVX = test system: EKVX
786-0 = test system: 786-0
XF498 = test system: XF498
A549 = test system: A549
HCT-116 = test system: HCT-116
SK-MEL-28 = test system: SK-MEL-28
SNB-75 = test system: SNB-75
SK-OV-3 = test system: SK-OV-3
NCI-H522 = test system: NCI-H522
HT-29 = test system: HT-29
NCI-H226 = test system: NCI-H226
TK-10 = test system: TK-10
UACC-257 = test system: UACC-257
RXF 393 = test system: RXF 393

SMILES	GI50 (SF-539)	GI50 (SW-620)	GI50 (OVCAR-8)	GI50 (DMS-273)	GI50 (EKVX)	GI50 (786-0)	GI50 (XF498)	GI50 (A549)	GI50 (HCT-116)	GI50 (SK-MEL-28)	GI50 (SNB-75)	GI50 (SK-OV-3)	GI50 (NCI-H522)	GI50 (HT-29)	GI50 (NCI-H226)	GI50 (TK-10)	GI50 (UACC-257)	GI50 (RXF 393)
Cn1c(=O)c2[nH]cnc2n(CC(=O)O)c1=O	> 100 µM (inactive)	> 100 µM (inactive)	> 100 µM (inactive)	> 100 µM (inactive)	> 100 µM (inactive)	> 100 µM (inactive)	> 100 µM (inactive)	> 100 µM (inactive)	> 100 µM (inactive)	> 100 µM (inactive)	> 100 µM (inactive)	> 100 µM (inactive)	> 100 µM (inactive)	> 100 µM (inactive)	> 100 µM (inactive)	> 100 µM (inactive)	–	–
COC1CC(OC)C(O)C(CO)O1 (stereo unspecified)	> 100 µM (inactive)	> 100 µM (inactive)	> 100 µM (inactive)	–	> 100 µM (inactive)	> 100 µM (inactive)	> 100 µM (inactive)	> 100 µM (inactive)	> 100 µM (inactive)	> 100 µM (inactive)	> 100 µM (inactive)	> 100 µM (inactive)	> 100 µM (inactive)	> 100 µM (inactive)	–	> 100 µM (inactive)	> 100 µM (inactive)	> 100 µM (inactive)
O=C(Cc1c(C(=O)Nc2ccccc2)sc(C(=O)Nc2ccccc2)c1CC(=O)Nc1ccccc1)Nc1ccccc1	> 100 µM (inactive)	> 100 µM (inactive)	> 100 µM (inactive)	> 100 µM (inactive)	> 100 µM (inactive)	> 100 µM (inactive)	> 100 µM (inactive)	> 100 µM (inactive)	> 100 µM (inactive)	0.719 µM (active)	> 100 µM (inactive)	> 100 µM (inactive)	> 100 µM (inactive)	> 100 µM (inactive)	> 100 µM (inactive)	> 100 µM (inactive)	> 100 µM (inactive)	> 100 µM (inactive)
CCCNC(=S)NNC(=O)CSc1nc(-c2ccccc2)c(-c2ccccc2)[nH]1	90.6 µM (inactive)	99.3 µM (inactive)	73.1 µM (inactive)	34.8 µM (inactive)	37 µM (inactive)	37 µM (inactive)	47.4 µM (inactive)	75.5 µM (inactive)	94.4 µM (inactive)	> 100 µM (inactive)	49.1 µM (inactive)	> 100 µM (inactive)	26.7 µM (inactive)	42 µM (inactive)	91.6 µM (inactive)	70.5 µM (inactive)	45.6 µM (inactive)	–
CC(/C=C/C(=O)c1sc(C(N)=S)nc1C)=C\c1ccccc1	> 100 µM (inactive)	–	> 100 µM (inactive)	20 µM (inactive)	> 100 µM (inactive)	> 100 µM (inactive)	> 100 µM (inactive)	> 100 µM (inactive)	> 10 µM (inactive)	> 100 µM (inactive)	> 100 µM (inactive)	> 100 µM (inactive)	81.8 µM (inactive)	> 100 µM (inactive)	> 100 µM (inactive)	> 100 µM (inactive)	> 100 µM (inactive)	> 100 µM (inactive)
COC(=O)/C=C(\C(=O)OC)c1c2c3c(cc(OC)c(OC)c3c3ccccc13)CCN2C	27.5 µM (inactive)	35.5 µM (inactive)	45.7 µM (inactive)	22.6 µM (inactive)	64.6 µM (inactive)	70.8 µM (inactive)	–	24.4 µM (inactive)	37.4 µM (inactive)	38.3 µM (inactive)	66.8 µM (inactive)	62.4 µM (inactive)	23.1 µM (inactive)	38.5 µM (inactive)	29.6 µM (inactive)	48.4 µM (inactive)	30.5 µM (inactive)	8.79 µM (inactive)
COc1cc2c(oc(=O)c3c4oc([Si](C)(C)C)cc4cc(OC)c23)c2cccc(O)c12	> 100 µM (inactive)	> 100 µM (inactive)	> 100 µM (inactive)	> 100 µM (inactive)	> 100 µM (inactive)	> 100 µM (inactive)	> 100 µM (inactive)	> 100 µM (inactive)	> 100 µM (inactive)	> 100 µM (inactive)	36.4 µM (inactive)	> 100 µM (inactive)	> 100 µM (inactive)	> 100 µM (inactive)	> 100 µM (inactive)	> 100 µM (inactive)	> 100 µM (inactive)	> 100 µM (inactive)
COc1cc2[nH]c3c(c2cc1OC)CCN[C@]31CC[C@]2(CC3c4c(cc(OC)c(O)c42)CCN3C)C[C@H]1OC (stereo partly specified)	17.1 µM (inactive)	22.3 µM (inactive)	19.6 µM (inactive)	2 µM (inactive)	55.7 µM (inactive)	15.7 µM (inactive)	15.6 µM (inactive)	25.1 µM (inactive)	15.6 µM (inactive)	20.2 µM (inactive)	21.5 µM (inactive)	25.8 µM (inactive)	–	22.3 µM (inactive)	45.5 µM (inactive)	21.6 µM (inactive)	19.9 µM (inactive)	3.04 µM (inactive)

— ChEMBL document CHEMBL1201862, “PubChem BioAssay data set” (2004)
